GI50 and TGI data for 8 compounds are collected here from PubChem BioAssay (NCI).

Several values for one entry are separate records, joined by “and”; a condition that tells them apart may be missing. Equal values may be shown once.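 How tested: cells in 96-well plates exposed to compound for 48 hours at five concentrations. GI50: concentration for 50% inhibition of growth. TGI denotes the concentration required for complete inhibition of growth.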

Experiment in all cases: NCI tumour cell line growth inhibition, 48 h
Assay [1] has as its system MDA-MB-231 breast.
Assay [2] deals with HS 578T breast.
In assay [3] the test system is SF-539 CNS.
The subject of assay [4] is HOP-62 NSCLC.
Assay [5] has as its system SK-MEL-2 melanoma.
The test system of assay [6] is SNB-75 CNS.
The test system of assay [7] is COLO 205 colon.
Assay [8] concerns DU-145 prostate.
Assay [9] has as its system A549 NSCLC.
Assay [10] relates to PC-3 prostate.

Regarding `COc1cc(-c2c(C#N)c(N)nc(N3CCOCC3)c2C#N)cc(OC)c1OC`, the GI50 is 22.6 µM in assay [1]; 94 µM in [2]; over 100 µM in [3]; 30.9 µM in assay [4]; over 100 µM in assay [5]; 1.64 µM in assay [6]. Besides, the GI50 in [7] is 5.39 µM; in assay [8] it was over 100 µM; in assay [9], over 100 µM; in assay [10] it was over 100 µM. For the same compound, the TGI in assay [1] was 78.9 µM; in assay [2], over 100 µM; in assay [3], over 100 µM; in assay [4], over 100 µM; in [5], over 100 µM; in [6] it was 54.4 µM. For the same compound, the TGI in assay [7], in [8], in assay [9] and in assay [10] was over 100 µM in each case.
Regarding `Cc1c(O)c2c(c(O)c1Br)C(=O)C=CC2=O`, the GI50 in [1] is 1.58 µM; in [3] it was 1.68 µM; in [4] it was 2.48 µM; in [5], 1.93 µM; in [6], 2.1 µM; in assay [7], 0.334 µM. Also, the GI50 was 1.82 µM in assay [8], 4.14 µM in assay [9] and 1.9 µM in assay [10]. The TGI in [1] is 3.01 µM and 3.48 µM; in assay [2], 6.34 µM; in [3], 1.66 µM and 3.1 µM; in assay [4] it was 2.36 µM and 5.35 µM; in [5] it was 4.45 µM; in [6] it was 2.85 µM and 5.07 µM. Also, the TGI is 0.428 µM and 1.45 µM in [7]; 2.85 µM and 3.24 µM in [8]; 4.47 µM and 29.4 µM in assay [9]; 3.19 µM and 5.15 µM in assay [10].
`COc1ccc(C2=NN(C(=O)c3cc(OC)c(OC)c(OC)c3)C(c3ccc(N(C)C)cc3)C2)cc1` (configuration not stated): the GI50 in assay [1] is 1.72 µM; in [2], 0.266 µM; in assay [3], 0.294 µM; in [4], 0.57 µM; in assay [5], 83.5 µM; in [6], 0.346 µM. In addition, the GI50 in assay [8] is 1.74 µM; in assay [9] it was 1.12 µM; in assay [10] it was 0.529 µM. Moreover, the TGI in [1] was 8.75 µM; in assay [2], 1.56 µM; in assay [3], 1.52 µM; in assay [5] it was over 100 µM; in assay [6], 8.72 µM; in assay [8], over 23.7 µM. For the same compound, the TGI in [9] and in assay [10] was over 100 µM throughout.
Regarding `CCOc1cccc(-c2nc(N)nc(Nc3ccccc3SSc3ccccc3Nc3nc(N)nc(-c4cccc(OCC)c4)n3)n2)c1`, the GI50 in assay [1] was 3.72 µM; in [2] it was 6.37 µM; in assay [3], 9.2 µM; in assay [4] it was 1.57 µM; in assay [5], 6.12 µM; in [6], over 100 µM. In addition, the GI50 in assay [7] was 35.8 µM; in [8], 7.5 µM; in [9] it was 2.02 µM; in assay [10], 0.671 µM. Besides, the TGI in assay [1] is 27 µM; in assay [2], over 100 µM; in assay [3], over 100 µM; in assay [4] it was 4.46 µM; in [5] it was over 100 µM; in assay [6] it was over 100 µM. The TGI in assay [7] is over 100 µM; in assay [8] it was over 100 µM; in [9] it was 4.78 µM; in assay [10] it was 15.3 µM.
Consider `Cc1ccc2c(c1)S(=O)(=O)c1ccc3ccccc3c1N2`, for which the TGI in assay [1], in assay [2], in assay [3], in assay [4], in [5] and in assay [7] was over 100 µM in each case. Further, the TGI in assay [8], in [9] and in assay [10] was over 100 µM throughout.
Consider `COc1cc(/C=C2\C[C@H]3[C@@H]4CC=C5C[C@@H](O)CC[C@]5(C)[C@H]4CC[C@]3(C)[C@H]2O)ccc1OCCCn1ccnc1`, for which the GI50 was 0.863 µM in assay [1]; 1.18 µM in assay [2]; 1.05 µM in assay [3]; 3.45 µM in assay [4]; 32.7 µM in assay [5]; 8.74 µM in assay [7]. Also, the GI50 in assay [8] is 1.92 µM; in assay [9], 1.18 µM; in [10], 1.45 µM. In addition, the TGI in [1] was 1.74 µM; in [2], 4.24 µM; in [3], 2.09 µM; in assay [4] it was 20 µM; in assay [5] it was over 50 µM; in assay [7] it was over 50 µM. In addition, the TGI stood at 7.45 µM in [8], 2.63 µM in assay [9] and 5.03 µM in assay [10].
For `COc1cc([N+](=O)[O-])c(OC)cc1-c1nc2sc(Cl)cn2c1/C=N/NC1=NCCN1`, the GI50 is 1.49 µM in [1]; 2.22 µM in assay [2]; 0.184 µM in assay [3]; 1.2 µM in [4]; 22.9 µM in [5]; 1.33 µM in [7]. Further, the GI50 was 0.306 µM in assay [8] and 1.71 µM in [10]. The TGI was 3.18 µM in assay [1]; 4.94 µM in assay [2]; 0.352 µM in assay [3]; 2.53 µM in assay [4]; over 100 µM in [5]; 3.7 µM in assay [7]. The TGI was 1.14 µM in [8] and 3.16 µM in [10].
For the compound `N#C[Se]CCCNS(=O)(=O)C1CC2C=CC1C2` (configuration not stated), the GI50 in assay [1] was 1.23 µM; in assay [2] it was 0.409 µM; in [3] it was 0.413 µM; in [4], 0.482 µM; in [5], 2 µM; in assay [7], 2.3 µM. Further, the GI50 in assay [8] was 1.06 µM; in assay [9], 0.601 µM; in assay [10], 0.704 µM. The TGI came to 3.55 µM in assay [1]; 1.87 µM in assay [2]; 1.56 µM in [3]; 1.82 µM in assay [4]; 6.15 µM in assay [5]; 5.83 µM in [7]. In addition, the TGI in assay [8] came to 2.58 µM; in [9] it was 2.63 µM; in assay [10], 3.83 µM.
